From patent US20090042818A1, “Liquiritigenin and Derivatives as Selective Estrogen Receptor Beta Agonists” (BIONOVO, INC., priority 2007, published 2009)
Entries after “also recorded” stand apart in the source; their conditions may differ.

Key:
ERα and ERβ = settings: cited from earlier work
[1] = test system: MCF-7 breast cancer cells; experiment: MCF-7 xenograft under kidney capsule of nude mice, tumor growth; format: in vivo; settings: 30 days; for tumor growth of MCF-7 grafts: subcutaneous osmotic pump, E2 0.4 mg, liquiritigenin 2 mg
Method: (§1) MCF-7 (250,000) cells were aggregated in suspension and then resuspended in 200 μL neutralized collagen, as previously described (Parmar et al., Endocrinology 143:4886-4896 (2002). The cells were then grafted under the kidney capsule of nude mice as described and illustrated in detail at: http://mammary.nih.gov/tools/mousework/Cunha001/index.html. Five mice per group were treated with a continuous infusion using osmotic pumps (Alzet, Cupertino, Calif.) containing vehicle, E2 (0.4 mg) or liquiritigenin (2 mg) that infused 2.5 μl/h for 1 month. After one month of treatment, the tumors and uteri were removed and analyzed. These animal studies were carried out with approval from the University of California, San Francisco Committee on Animal Research. The major concern with estrogens for menopausal symptoms is the proliferation of breast and endometrial cells causing an increased risk for breast and uterine cancer. To determine if liquiritigenin has a proliferative effect on breast cancer and endometrial cells, MCF-7 breast cancer cells were grafted under the kidney capsule of nude mice. Using a subcutaneous osmotic pump designed to deliver a steady dose of drug, the mice were treated for 30 days with vehicle, E2, or liquiritigenin.

uterus = experiment: MCF-7 xenograft study in nude mice, uterine horn mass; format: in vivo; settings: osmotic pump, 30 days, E2 0.4 mg, liquiritigenin 2 mg
Method: as §1

[2] = target: T1, progesterone receptor B (PR) (Homo sapiens, UniProt P06401); experiment: TAT3-luciferase transfection assay with progesterone receptor B in U2OS cells; settings: 2.5 μM, 18 h
T1 sequence (P06401 1-933): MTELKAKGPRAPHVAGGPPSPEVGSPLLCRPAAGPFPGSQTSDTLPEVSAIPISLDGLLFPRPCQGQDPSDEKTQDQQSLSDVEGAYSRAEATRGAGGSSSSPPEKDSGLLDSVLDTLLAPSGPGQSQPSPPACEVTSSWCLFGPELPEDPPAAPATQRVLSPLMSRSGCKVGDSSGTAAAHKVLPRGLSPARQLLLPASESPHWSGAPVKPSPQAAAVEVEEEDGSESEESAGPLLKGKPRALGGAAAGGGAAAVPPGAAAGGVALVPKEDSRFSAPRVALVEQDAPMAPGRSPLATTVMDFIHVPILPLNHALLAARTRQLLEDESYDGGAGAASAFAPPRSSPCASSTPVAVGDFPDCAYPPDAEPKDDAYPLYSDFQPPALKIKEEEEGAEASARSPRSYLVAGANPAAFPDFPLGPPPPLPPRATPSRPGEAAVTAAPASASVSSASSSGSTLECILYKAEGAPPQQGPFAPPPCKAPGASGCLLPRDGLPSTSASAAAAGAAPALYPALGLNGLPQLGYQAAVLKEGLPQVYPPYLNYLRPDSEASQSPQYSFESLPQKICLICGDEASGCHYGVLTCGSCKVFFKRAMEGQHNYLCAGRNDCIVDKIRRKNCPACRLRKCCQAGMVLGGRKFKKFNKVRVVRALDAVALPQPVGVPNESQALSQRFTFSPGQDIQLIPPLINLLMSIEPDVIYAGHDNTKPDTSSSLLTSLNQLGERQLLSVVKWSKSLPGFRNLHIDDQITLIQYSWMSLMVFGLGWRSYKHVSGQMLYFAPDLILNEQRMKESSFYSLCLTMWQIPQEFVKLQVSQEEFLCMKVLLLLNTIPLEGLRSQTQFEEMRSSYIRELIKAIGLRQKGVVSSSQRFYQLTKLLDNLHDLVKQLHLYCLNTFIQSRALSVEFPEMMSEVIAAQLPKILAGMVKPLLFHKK

ERα [3] = target: T2, ERα (Homo sapiens, UniProt P03372); experiment: Native ER regulatory element (CECR6, NKG2E, NKD) tk-Luc transfection assay with ERα; format: cell-based; parameters: expressed in transfected cells; host or cells: U2OS
T2 sequence (P03372 1-595): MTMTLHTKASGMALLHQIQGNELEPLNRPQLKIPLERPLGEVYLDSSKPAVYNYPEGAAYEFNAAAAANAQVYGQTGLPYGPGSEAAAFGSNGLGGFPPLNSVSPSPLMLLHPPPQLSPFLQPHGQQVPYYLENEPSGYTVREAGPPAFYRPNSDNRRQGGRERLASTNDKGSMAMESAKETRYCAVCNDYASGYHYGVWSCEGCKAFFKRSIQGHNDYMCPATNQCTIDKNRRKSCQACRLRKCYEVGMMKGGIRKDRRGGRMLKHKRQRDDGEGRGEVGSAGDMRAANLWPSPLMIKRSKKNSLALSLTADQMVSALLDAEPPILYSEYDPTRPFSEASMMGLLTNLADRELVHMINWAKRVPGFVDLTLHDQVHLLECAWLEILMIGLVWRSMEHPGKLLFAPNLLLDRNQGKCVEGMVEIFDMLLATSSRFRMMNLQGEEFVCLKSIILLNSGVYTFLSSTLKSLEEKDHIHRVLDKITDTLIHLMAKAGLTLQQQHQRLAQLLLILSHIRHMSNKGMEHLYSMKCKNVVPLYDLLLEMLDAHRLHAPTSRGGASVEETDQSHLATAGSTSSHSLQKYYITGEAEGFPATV
Excerpt: In addition to the traditional ERE, it is important to determine if liquiritigenin selectivity activates ERβ in elements derived from native ER target genes. ER regulatory elements from the cat eye syndrome chromosome region candidate 6 (CECR6), killer cell lectin-like receptor (NKG2E) and the naked cuticule homolog (NKD) genes that are activated by E2 Levy et al., Endocrinology doi:10.1210/en.2006-1632 (2007)) were used. CECR6-tk-Luc (A), NKG2E-tk-Luc (B), and NKD-tk-Luc (C) were transfected into U2OS cells with expression vectors for human ERα or ERβ. […] Liquiritigenin produced a dose-dependent activation of CECR6, NKG2E, and NKD with ERβ but not with ERα (FIGS. 4A, 4B, 4C, respectively). The cells were then treated for increasing times with liquiritigenin.

[4] = target: T3, glucocorticoid receptor (GR) (Homo sapiens, UniProt P04150); experiment: MMTV-luciferase transfection assay with glucocorticoid receptor in U2OS cells; settings: 2.5 μM, 18 h
T3 sequence (P04150 1-777): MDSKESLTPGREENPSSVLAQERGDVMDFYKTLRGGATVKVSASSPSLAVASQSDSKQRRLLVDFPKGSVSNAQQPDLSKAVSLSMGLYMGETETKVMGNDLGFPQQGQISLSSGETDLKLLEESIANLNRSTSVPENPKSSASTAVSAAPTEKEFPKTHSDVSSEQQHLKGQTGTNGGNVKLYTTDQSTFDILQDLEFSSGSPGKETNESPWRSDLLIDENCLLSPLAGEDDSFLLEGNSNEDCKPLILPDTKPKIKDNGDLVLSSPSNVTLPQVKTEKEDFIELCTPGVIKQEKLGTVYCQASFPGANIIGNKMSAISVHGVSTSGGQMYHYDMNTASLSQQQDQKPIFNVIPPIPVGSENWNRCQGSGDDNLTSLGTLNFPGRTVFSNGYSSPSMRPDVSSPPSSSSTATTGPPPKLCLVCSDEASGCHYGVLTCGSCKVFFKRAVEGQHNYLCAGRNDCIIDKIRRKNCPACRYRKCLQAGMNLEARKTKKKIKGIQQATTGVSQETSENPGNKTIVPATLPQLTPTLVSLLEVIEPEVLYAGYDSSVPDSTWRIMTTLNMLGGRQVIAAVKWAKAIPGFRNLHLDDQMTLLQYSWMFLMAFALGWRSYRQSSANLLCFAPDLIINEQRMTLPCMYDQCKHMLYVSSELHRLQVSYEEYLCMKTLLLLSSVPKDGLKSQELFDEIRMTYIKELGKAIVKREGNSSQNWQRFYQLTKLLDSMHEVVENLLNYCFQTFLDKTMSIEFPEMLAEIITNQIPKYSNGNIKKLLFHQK

[5] = target: T4, thyroid hormone receptor β1 (TR) (Homo sapiens, UniProt P10828); experiment: F2-tkLuc transfection assay with thyroid hormone receptor β1 in U2OS cells; settings: 2.5 μM, 18 h
T4 sequence (P10828 1-461): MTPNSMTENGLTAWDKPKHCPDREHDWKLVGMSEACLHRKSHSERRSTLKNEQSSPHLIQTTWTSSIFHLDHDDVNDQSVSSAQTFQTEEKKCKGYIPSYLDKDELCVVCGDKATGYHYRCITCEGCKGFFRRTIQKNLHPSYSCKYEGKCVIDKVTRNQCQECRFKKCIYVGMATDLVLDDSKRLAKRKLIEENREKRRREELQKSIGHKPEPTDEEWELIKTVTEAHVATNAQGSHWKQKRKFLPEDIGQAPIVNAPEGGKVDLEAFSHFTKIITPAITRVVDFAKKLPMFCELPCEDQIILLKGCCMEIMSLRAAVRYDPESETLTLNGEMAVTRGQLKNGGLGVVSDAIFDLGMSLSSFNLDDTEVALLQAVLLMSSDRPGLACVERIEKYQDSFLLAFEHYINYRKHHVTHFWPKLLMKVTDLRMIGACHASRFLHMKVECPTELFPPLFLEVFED

ERα [6] = target: T2, ERα; experiment: Real-time PCR of native target gene mRNA in U2OS-ERα cells; format: cell-based; parameters: expressed in transfected cells; settings: 1 μM
androgen receptor (AR) = target: T5, androgen receptor (AR) (Homo sapiens, UniProt P10275); experiment: TAT3-luciferase transfection assay with androgen receptor in U2OS cells; settings: 2.5 μM, 18 h
T5 sequence (P10275 1-920): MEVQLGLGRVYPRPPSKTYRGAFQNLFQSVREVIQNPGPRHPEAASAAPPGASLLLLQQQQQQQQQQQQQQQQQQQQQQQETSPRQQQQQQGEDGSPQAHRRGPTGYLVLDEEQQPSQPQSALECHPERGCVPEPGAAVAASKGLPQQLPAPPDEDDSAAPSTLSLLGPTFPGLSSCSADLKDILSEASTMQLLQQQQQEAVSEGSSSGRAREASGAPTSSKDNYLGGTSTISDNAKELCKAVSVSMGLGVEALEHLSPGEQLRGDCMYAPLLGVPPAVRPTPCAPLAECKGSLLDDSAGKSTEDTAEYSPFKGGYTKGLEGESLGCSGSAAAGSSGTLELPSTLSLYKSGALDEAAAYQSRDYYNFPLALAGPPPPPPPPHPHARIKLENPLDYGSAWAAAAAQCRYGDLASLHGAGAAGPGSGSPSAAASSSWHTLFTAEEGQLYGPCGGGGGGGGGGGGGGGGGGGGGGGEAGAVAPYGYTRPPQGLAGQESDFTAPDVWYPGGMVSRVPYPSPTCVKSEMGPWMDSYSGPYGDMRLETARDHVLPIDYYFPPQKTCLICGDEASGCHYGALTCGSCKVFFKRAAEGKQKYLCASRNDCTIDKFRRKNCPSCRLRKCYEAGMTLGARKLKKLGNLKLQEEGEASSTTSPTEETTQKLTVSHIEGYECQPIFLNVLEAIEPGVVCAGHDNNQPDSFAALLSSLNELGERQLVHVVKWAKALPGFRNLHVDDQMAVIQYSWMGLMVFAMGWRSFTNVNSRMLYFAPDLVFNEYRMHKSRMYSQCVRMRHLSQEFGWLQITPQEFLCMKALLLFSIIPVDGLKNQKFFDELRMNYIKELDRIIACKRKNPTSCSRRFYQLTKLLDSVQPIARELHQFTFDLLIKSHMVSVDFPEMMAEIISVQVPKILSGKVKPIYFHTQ

[7] = test system: mammary and uterine tissue; settings: rat, in vivo; cited from earlier work
[8] = U2OS cells, 18 h, increasing amounts

Q: Which “binding affinity to ERβ compared to ERα” value (ERα and ERβ) does the source give for C[C@]12CC[C@@H]3c4ccc(O)cc4CC[C@H]3[C@@H]1CC[C@@H]2O [E2, 17β-Estra-1,3,5(10)-triene-3,17-diol, reference compound] here?
A: The value was “equal affinity”.

Q: And the “tumor growth of MCF-7 grafts” value [1]?
A: Its value is “Large tumors developed; also recorded: causes the formation of large tumors”.

Q: Which “binding affinity to ERβ compared to ERα” value (ERα and ERβ) does the source give for O=c1c(-c2ccc(O)cc2)coc2cc(O)cc(O)c12 [genistein] here?
A: The value was “higher affinity; also recorded: binds better to ERβ than ERα”.

Q: With O=C1C[C@@H](c2ccc(O)cc2)Oc2cc(O)ccc21 [liquiritigenin, (2S)-7-hydroxy-2-(4-hydroxyphenyl)-2,3-dihydro-4H-1-benzopyran-4-one] as the molecule, how does the uterine horn mass (uterus) read?
A: Its uterine horn mass is “did not increase uterine horn mass”.

Q: And the uterine horn mass (uterus; listed as liquirtigenin)?
A: The uterine horn mass was “does not increase the size of the uterus”.

Q: What about the “activation of progesterone receptor B (luciferase)” value [2] of the same molecule?
A: The value was “did not activate”.

Q: And the “activation of multiple ER regulatory elements” value (ERα [3]; 1 μM, ERα)?
A: The value was “does not activate”.

Q: And the “activation of CECR6-tk-Luc with ERα” value (ERα [3]; [8])?
A: The value was “not with ERα”.

Q: And the “activation of NKD-tk-Luc with ERα” value (ERα [3]; [8])?
A: The value was “not with ERα”.

Q: What about the “activation of glucocorticoid receptor (luciferase)” value [4] of the same molecule?
A: Its value is “did not activate”.

Q: What about the “activation of thyroid hormone receptor (luciferase)” value [5] of the same molecule?
A: Its value is “did not activate”.

Q: And the “activation of endogenous genes in U2OS-ERα cells” value (ERα [6])?
A: The value was “does not activate”.

Q: And the “weight of the tumors compared to the control mice” value ([1]; osmotic pump, 2 mg)?
A: The value was “no differences in the weight of the tumors”.

Q: What about the “tumor growth of MCF-7 grafts” value [1] of the same molecule?
A: The value was “essentially no tumor growth; also recorded: does not stimulate breast cancer tumor formation”.

Q: And the “activation of androgen receptor (luciferase)” value (androgen receptor (AR))?
A: Its value is “did not activate”.

Q: With C=Cc1cc(O)cc2nc(-c3ccc(O)c(F)c3)oc12 [ERβ-041] as the molecule, how does the “proliferative effects on mammary and uterine tissue” value [7] read?
A: Its value is “does not elicit any proliferative effects”.
